This is an account of results in patent US5154930A, “Pharmacological agent-lipid solution preparation” (The Liposome Company, Inc., priority 1988, dated 1992).

Data set [1] in a line: Stability of agent to water (hydrolysis) in ethanol. The class given is physicochemical. As to conditions: water even at about 5% in ethanol.
Data set [2] is described as follows: Salting in: solubility in absolute ethanol with and without egg phosphatidylcholine. As to conditions: for increase in solubility or apparent solubility (co-solubilizing or salting-in) / salting in / form of apparent solubility: lipid in lipid solvent. The class given is physicochemical. How it is done:
To determine whether phospholipids can increase the solubility or apparent solubility of a pharmacological agent such as salicylic acid acetate, both drug and lipid were co-solubilized in a lipid solvent such as absolute ethanol (USP). Five ml of this lipid solvent was able to dissolve about a maximum of 1 gr. salicylic acid acetate. A lipid such as egg phosphatidylcholine was completely dissolved in 5 ml of ethanol in a series of test tubes and to this solution crystals of the test pharmacological agent salicylic acid acetate were added gradually and dissolved. […] Any convenient temperature and pressur may be used for this procedure that will dot adversely affect the pharmacological agent or boil the lipid solvent.
Five ml of absolute ethanol was able to dissolve maximum 1 gr. salicylic acid acetate. Egg phosphatidylcholine (Hepar) 1.5 gm was completely dissolved in 5 ml of ethanol in a series of test tubes and to this solution crystals of salicylic acid acetate were added gradually and dissolved. […] To accelerate the dissolving process all test tubes containing crystals of salicylic acid acetate and lipid solvent were agitated gently in a water bath of 40° C. and cooled to about 22.5° C.+/- about 2.5° C. after crystals were completely dissolved.

As for `CC(=O)Oc1ccccc1C(=O)O` [salicylic acid acetate], the “tolerance of water (hydrolysis)” value in data set [1] is “do not tolerate the presence of water even at about 5% in ethanol”. In addition, in data set [2], the “maximum amount dissolved in absolute ethanol” value is given as approximately 1 gr and the “increase in solubility or apparent solubility (co-solubilizing or salting-in)” value is reported as not above 50%.

For the compound `COc1ccc2c(c1)c(CC(=O)O)c(C)n2C(=O)c1ccc(Cl)cc1` [indomethacin], the “increase in solubility of drug (salting in)” value in data set [2] (egg phosphatidylcholine ethanol versus ethanol) is recorded as “about 50%”. Further, the “increase in solubility or apparent solubility (co-solubilizing or salting-in)” value in data set [2] is not above 50%.

In the case of `C[C@@H]1[C@H](O)[C@@H](C)/C=C/C=C/C=C/C=C/C=C/C=C/C=C/[C@H](O[C@@H]2O[C@H](C)[C@@H](O)[C@H](N)[C@@H]2O)C[C@@H]2O[C@](O)(C[C@@H](O)C[C@@H](O)[C@H](O)CC[C@@H](O)C[C@@H](O)CC(=O)O[C@H]1C)C[C@H](O)[C@H]2C(=O)O` [amphotericin B], the “salting in / form of apparent solubility” value was “in the form of a complex with dissolved lipid rather than truly solubilized” in data set [2] and “similarly salted in but appears to do so in the form of complexes with lipid rather than simple solubilizing” in data set [2] (listed as Amphoteracin B).
